According to ChEMBL document CHEMBL6071172, “Addressing the Intracellular Vestibule of the Plasmodial Lactate Transporter PfFNT by p-Substituted Inhibitors Amplifies In Vitro Activity” (J Med Chem, 2024):
Blank lines part the entries; values can stand above or below the compound they belong to. Calls of active or inactive are those of the source. The rule behind the calls is not given here.

Assays:
[1] = Dissociation constant, pKa of compound; assay type: physicochemical
Plasmodium falciparum [2] = assay: Antiplasmodial activity against Plasmodium falciparum 3D7 infected in erythrocytes incubated for 48 hrs with media replenishment with compound after 24 hrs by LSR II FACS analysis; assay type: functional, organism-based; conditions: 3D7, Erythrocyte
Plasmodium falciparum [3] = assay: Antiplasmodial activity against Plasmodium falciparum 3D7 infected in erythrocytes assessed as inhibition of parasite growth at 50 nM incubated for 48 hrs with media replenishment with compound after 24 hrs by LSR II FACS analysis relative to control; assay type: functional; conditions: 3D7, Erythrocyte
[4] = Inhibition of Plasmodium falciparum FNT extracted from Saccharomyces cerevisiae W303-1A jen1 delta ady2 delta assessed as reduction in [1-14C]-L-lactate uptake preincubated for 20 mins followed by substrate addition by TriCrab liquid scintillation counter
[5] = Binding affinity to C-terminal GFP tagged Plasmodium falciparum FNT extracted from HEK293 cell membrane assessed as inhibition constant measured 10 times for 5 sec in presence of BH267.meta-DY647 tracer by fluorescence cross-correlation spectroscopic analysis; assay type: cell membranes
[6] = Metabolic stability in pooled human liver microsomes assessed as intrinsic clearance at 1 uM by LC-MS/MS analysis; assay type: ADME, Microsome; conditions: read-out: CLH
Plasmodium berghei = assay: Antiplasmodial activity against Plasmodium berghei ANKA infected in malarial mouse model assessed as elimination of parasitemia at 3 to 30 mg/kg/day, po administered for 4 days by flow cytometric analysis relative to control; assay type: functional; conditions: dose 3-30 mg/kg/day, time 4 day
HepG2 [7] = assay: Cytotoxicity against human HepG2 cells assessed as change in redox capability of cytosol upto 100 uM by CellTiter-Glo assay; assay type: toxicity, cell-based
HEK293 [8] = assay: Cytotoxicity against HEK293 cells assessed as reduction in nuclei count at >10 uM by Hoechst 33342 staining based microscopic analysis; assay type: toxicity, cell-based; conditions: human, hek293, 10 µM
HEK293 [9] = assay: Cytotoxicity against HEK293 cells assessed as change in ATP level upto 100 uM by CellTiter-Glo assay; assay type: toxicity, cell-based; conditions: human, hek293, 100 µM
HEK293 [10] = assay: Cytotoxicity against HEK293 cells assessed as change in redox capability of cytosol upto 100 uM by resazurin dye based fluorescence microplate reader; assay type: toxicity, cell-based; conditions: human
HepG2 [11] = assay: Cytotoxicity against human HepG2 cells assessed as change in ATP level upto 100 uM by CellTiter-Glo assay; assay type: toxicity, cell-based; conditions: hepg2, 100 µM
HepG2 [12] = assay: Cytotoxicity against human HepG2 cells assessed as reduction in nuclei count at >10 uM by Hoechst 33342 staining based microscopic analysis; assay type: toxicity, cell-based; conditions: hepg2, 10 µM
Plasmodium falciparum [13] = assay: Antiplasmodial activity against Plasmodium falciparum 3D7 infected in SCID mouse model assessed as decrease in parasite load at 150 mg/kg/day, po administered for 4 days; assay type: functional, organism-based; conditions: time 4.0 day
[14] = Drug concentration in blood of SCID mouse model infected with plasmodium falciparum 3D7 at 50 mg/kg/day, po administered for 4 days; assay type: ADME, organism-based; conditions: time 4 day, read-out: Ct
[15] = Half-life in SCID mouse model infected with plasmodium falciparum 3D7 at 50 mg/kg/day, po administered for 4 days; assay type: ADME, organism-based; conditions: in vivo, time 4 day

pKa [1]: 10
Compound: FC(F)(F)C(F)(F)c1cc(-c2cccnc2)n[nH]1

EC50 (Plasmodium falciparum [2]): < 100 nM
Compound: O=C(/C=C(\O)C(F)(F)C(F)(F)F)c1ccc(NCc2ccccc2)nc1

pKa [1]: 8
Compound: FC(F)(F)C(F)(F)c1nc(-c2cccnc2)n[nH]1

Compound: COc1ccc(C(=O)/C=C(\O)C(F)(F)C(F)(F)F)c(O)c1
inhibition at 0.05 µM (Plasmodium falciparum [3]): < 10%
IC50 [4]: 170 nM
Ki [5]: 83 nM

CLint scaled at 1 µM [6]: 3.98 mL/min/kg
Compound: O=C(/C=C(\O)C(F)(F)C(F)(F)F)c1cccnc1
Activity (Plasmodium berghei): >99.7%

CLint scaled at 1 µM [6]: 10.6 mL/min/kg
EC50 (Plasmodium falciparum [2]): < 100 nM
Compound: CC(=O)Nc1ccc(C(=O)/C=C(\O)C(F)(F)C(F)(F)F)cn1
Activity (HepG2 [7]): Non-Toxic
Activity (HEK293 [8]): Non-Toxic
Activity (HEK293 [9]): Non-Toxic
Activity (HEK293 [10]): Non-Toxic
Activity (HepG2 [11]): Non-Toxic
Activity (HepG2 [12]): Non-Toxic

CLint scaled at 1 µM [6]: 462 mL/min/kg
concentration at 96 h [14]: ~2000 ng/mL
half-life [15]: 2 h
Compound: CCCNc1ccc(C(=O)/C=C(\O)C(F)(F)C(F)(F)F)cn1
Activity (HepG2 [7]): Non-Toxic
Activity (Plasmodium falciparum [13]): Active
Activity (HEK293 [8]): Non-Toxic
Activity (HEK293 [9]): Non-Toxic
Activity (HEK293 [10]): Non-Toxic
Activity (HepG2 [11]): Non-Toxic
Activity (HepG2 [12]): Non-Toxic
